The values that follow are results of earlier work, collected in patent US20060228403A1, “Nutritional supplements for cardiovascular health” (priority 2005, published 2006).

Data set [1] has as its system cytochrome P450 omega-hydroxylase. The following applies: hamster; for magnitude of O2-induced constriction of arterioles in the cremaster and retractor muscles: 17-octadecynoic acid 10 micromolar superfusion, DDMS intravenous infusion.
In data set [2] the test system is forearm microcirculation. Conditions: after supplementation 4 g/d for 6 weeks.
In data set [3] the test system is platelet aggregation in cerebral arterioles. The following applies: mice.
Data set [4] has as its system thromboxane B2. The following applies: mice; fish oil daily by gavage six weeks; indomethacin 0.5 mg/kg ip acute.

As to `C#CCCCCCCCCCCCCCCCC(=O)O` [17-octadecynoic acid], in data set [1], the “arteriolar constriction in response to elevated PO2 in the epithelial portion of the cheek pouch” value is reported as “unaffected”; the “magnitude of O2-induced constriction of arterioles in the cremaster and retractor muscles” value is listed as “significant reduction”.

Consider `CC/C=C\C/C=C\C/C=C\C/C=C\C/C=C\C/C=C\CCC(=O)O` [DHA, docosahexaenoic acid], for which the “plasma phospholipid DHA composition” value in data set [2] is listed as “increased”.

With `CS(=O)(=O)NC(=O)CCCCCCCCCC=C(Br)Br` [N-methylsulfonyl-12,12-dibromododec-11-enamide], in data set [1], the “arteriolar constriction in response to elevated PO2 in the epithelial portion of the cheek pouch” value was “unaffected”; the “magnitude of O2-induced constriction of arterioles in the cremaster and retractor muscles” value is given as “significant reduction”.

Regarding `CC/C=C\C/C=C\C/C=C\C/C=C\C/C=C\CCCC(=O)O` [EPA, eicosapentaenoic acid], the “plasma phospholipid EPA levels” value in data set [2] is “increased significantly”.

As to `COc1ccc2c(c1)c(CC(=O)O)c(C)n2C(=O)c1ccc(Cl)cc1` [Indomethacin, indomethacin], the “effect on arteriolar platelet aggregation” value in data set [3] is “significantly slows”. Further, in data set [3] (0.5 mg/kg ip acute), the “increase of time to first arteriolar aggregate” value is on record as 35%. Also, the “decrease of serum thromboxane B2” value in data set [4] is given as 80%.
